# Data taken from patent US9921225B2, “Phenyl glyoxal probes” (The Scripps Research Institute, priority 2012, dated 2018).
# Several values for one entry are separate records, joined by “and”; a condition that tells them apart may be missing. Equal values may be shown once.
# Legend:
# autodeiminated PAD4 [1] = molecular target: T1, autodeiminated PAD4 (Homo sapiens, UniProt Q9UM07); assay: Biotin-PG limit of detection, streptavidin-HRP blot; details: Example 1; 20% TCA, 0.1 mM Biotin-PG, 37° C., 3 h
# T1 sequence (Q9UM07 whole entry): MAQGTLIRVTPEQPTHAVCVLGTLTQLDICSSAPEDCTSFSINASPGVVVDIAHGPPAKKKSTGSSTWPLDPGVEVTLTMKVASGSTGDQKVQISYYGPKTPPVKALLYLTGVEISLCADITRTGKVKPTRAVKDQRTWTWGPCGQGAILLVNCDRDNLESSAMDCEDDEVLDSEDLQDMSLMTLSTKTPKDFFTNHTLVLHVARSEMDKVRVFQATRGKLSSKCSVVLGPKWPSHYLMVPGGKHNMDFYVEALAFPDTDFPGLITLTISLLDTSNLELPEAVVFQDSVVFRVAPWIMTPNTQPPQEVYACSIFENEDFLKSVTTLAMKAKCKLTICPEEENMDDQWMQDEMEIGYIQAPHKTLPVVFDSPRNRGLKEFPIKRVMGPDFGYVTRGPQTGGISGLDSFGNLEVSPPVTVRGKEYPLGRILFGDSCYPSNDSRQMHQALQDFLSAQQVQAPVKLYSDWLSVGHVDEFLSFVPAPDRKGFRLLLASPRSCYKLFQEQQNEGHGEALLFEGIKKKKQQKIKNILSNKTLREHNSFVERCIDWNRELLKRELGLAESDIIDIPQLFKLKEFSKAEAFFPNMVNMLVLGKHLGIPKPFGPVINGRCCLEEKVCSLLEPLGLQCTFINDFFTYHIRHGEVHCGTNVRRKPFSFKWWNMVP
# Method: Biotin-PG Pulldown and Labeling—It was next set out to determine the utility of the biotin-tagged PG probe, Biotin-PG (FIG. 2), as a tool for labeling, isolating, and enriching citrullinated proteins. As with the Rh-PG probe, the LOD of this probe was first determined with respect to autodeiminated PAD4. For these studies, autodeiminated PAD4, prepared as described above, was diluted into 50 mM HEPES pH 8.0 to final concentrations of 1.6 μM, 0.16 μM, 16 nM, 1.6 nM, and 0.16 nM. These samples were then incubated at 37° C. for 3 h with 20% TCA and 0.1 mM Biotin-PG. Solutions were quenched, cooled on ice for 30 min, and centrifuged at 14,000 rpm for 15 min at 4° C. The supernatant was removed and samples were washed with cold acetone and dried at 100° C. for 5 min. Proteins were resuspended in 25 μL of 50 mM HEPES and boiled with 6×SDS loading dye and various amounts of protein (i.e., 1,000, 100, 10, 1, and 0.1 ng) loaded onto a 12% SDS-PAGE gel. Gel electrophoresis was performed at 200 V for 50 min and proteins were subsequently electrotransferred to nitrocellulose (tris-glycine buffer; 80 V; 70 min) and the membrane blocked with 5% BSA in PBS for 1 h at rt. After washing 2× with PBS (10 min), the blot was treated with streptavidin-HRP (1:20,000) in 5% BSA in PBS for 1 h at rt. […]
# [2] = system: DSS induced ulcerative colitis; details: cited from earlier work
# [3] = system: serum protein citrullination; assay: Rh-PG analysis of murine ulcerative colitis serum samples; assay type: in vivo, mouse; details: serum of DSS mice treated with Cl-amidine
# Method: Rh-PG Analysis of Murine Ulcerative Colitis Serum Samples: Serum samples Cl-amidine efficacy in a mouse model of ulcerative colitis were obtained and analyzed by the Rh-PG method. Briefly, the protein concentration of serum samples was first obtained using a standard Lowry assay. A sample (2 mg/mL; 30 μL) of each serum sample (i.e., 14 total; 7 DSS; 7 DSS+Cl-amidine) was prepared in 50 mM HEPES and treated with 20% TCA and 0.1 mM Rh-PG for 30 min at 37° C. Samples were then quenched with citrulline, cooled, centrifuged, washed, and dried. After resuspending in 50 mM HEPES, samples were separated by SDS-PAGE (12%; 170 V; 50 min) and imaged on a Typhoon Imager (Ex. 532 nm; Em. 580 nm). Images were analyzed using ImageQuant 5.2 and correlation coefficients were determined using Microsoft Excel. These experiments were run in duplicate on different days. Subsequent statistical analysis was done using STATISTICA, utilizing two-tailed, independent student's t-tests to determine significance (i.e., P-value) between diseased and Cl-amidine treated samples. Correlation coefficients were calculated in Microsoft Excel, utilizing a table of critical values of Pearson's r with a degree of freedom value of 12 (n−2) to determine the significance (i.e., P-value) of the correlation between the fluorescence of a particular protein and a disease score.
# autodeiminated PAD4 [4] = molecular target: T1, autodeiminated PAD4; assay: Rh-PG limit of detection, SDS-PAGE and fluorescent imaging; details: Example 1; 20% TCA, 0.1 mM Rh-PG, 37° C., 3 h; LOD defined as three times the noise
# Method: The sensitivity of the probe was analyzed next (FIGS. 5A, 5B). Autodeiminated PAD4, prepared as described above, was diluted into 50 mM HEPES pH 8.0 to final concentrations of 1.6 μM, 0.16 μM, 16 nM, 1.6 nM, and 0.16 nM. To one set of samples was added 0.1 mM Rh-PG, and to a second set, 20% TCA and 0.1 mM Rh-PG. The samples were then incubated at 37° C. for 3 h. To TCA precipitate autodeiminated PAD4, the acidic solutions were cooled on ice for 30 min and then centrifuged at 14,000 rpm for 15 min at 4° C. The supernatant was removed and samples were washed with cold acetone and dried at 100° C. for 5 min. Proteins were resuspended in 25 μL of 50 mM HEPES. Both basic and acidic samples were then boiled with 6×SDS loading dye and various amounts of protein (i.e., 1000, 100, 10, 1, and 0.1 ng) loaded onto a 12% SDS-PAGE gel. Gel electrophoresis was performed at 170 V for 60 min and the gels analyzed on a Typhoon Imager (Ex. 532 nm; Em. 580 nm) (FIGS. 5A, 5B). […]
# Rh-PG Limit of Detection: Citrullinated H3 and autodeiminated PAD4, prepared as described above, were diluted into 50 mM HEPES pH 7.6 to final concentrations of (2.2 μM, 0.22 μM, 22 nM, 2.2 nM, and 0.22 nM H3) and (0.16 μM, 16 nM, 1.6 nM, 0.16 nM, and 0.016 nM PAD4). […] Gel electrophoresis was performed at 170 V for 50 min and the gels analyzed on a Typhoon Imager (Ex. 532 nm; Em. 580 nm).
# PAD4 = PAD4 (Homo sapiens, UniProt Q9UM07); assay: Steady-state kinetic assay of protein citrullination using Rh-PG; assay type: biochemical; details: recombinant huApoA1, Rh-PG readout
# Chain of PAD4 (Q9UM07 whole entry, species assumed): as the sequence (Q9UM07 whole entry) above
# PAD2 = PAD2 (Homo sapiens, UniProt Q9Y2J8); assay: Kinetic characterization of ApoA1 as a PAD substrate using Rh-PG; assay type: biochemical; details: recombinant huApoA1, Rh-PG readout
# Chain of PAD2 (Q9Y2J8 whole entry, species assumed): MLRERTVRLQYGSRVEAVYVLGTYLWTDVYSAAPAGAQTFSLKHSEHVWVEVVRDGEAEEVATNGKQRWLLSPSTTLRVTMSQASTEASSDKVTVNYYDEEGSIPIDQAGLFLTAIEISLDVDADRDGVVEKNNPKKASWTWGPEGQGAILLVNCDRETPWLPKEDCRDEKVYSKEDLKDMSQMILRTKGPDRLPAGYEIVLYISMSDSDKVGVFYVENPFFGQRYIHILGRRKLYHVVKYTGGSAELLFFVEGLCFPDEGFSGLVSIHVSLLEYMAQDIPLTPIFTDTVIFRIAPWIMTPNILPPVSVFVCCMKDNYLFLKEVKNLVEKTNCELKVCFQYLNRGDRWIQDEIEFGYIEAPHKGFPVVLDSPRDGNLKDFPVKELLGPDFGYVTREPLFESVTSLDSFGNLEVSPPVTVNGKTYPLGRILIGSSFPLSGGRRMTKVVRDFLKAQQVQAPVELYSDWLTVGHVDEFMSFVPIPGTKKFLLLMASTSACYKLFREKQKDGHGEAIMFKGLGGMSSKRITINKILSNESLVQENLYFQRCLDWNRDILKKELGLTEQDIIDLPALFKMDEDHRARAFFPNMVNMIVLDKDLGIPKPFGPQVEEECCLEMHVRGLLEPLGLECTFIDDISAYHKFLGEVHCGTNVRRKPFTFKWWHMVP
# Method: (§1) To verify that ApoA1 is the modified 25 kDa protein in the UC samples, anti-ApoA1 Western blotting of Biotin-PG pulldown samples was performed (FIG. 24A). […] To test human ApoA1 as a PAD substrate, recombinant huApoA1 was first treated ±PADs 1-4 and then analyzed with the Rh-PG probe (FIG. 24B). […] PADs 2, 3, and 4 also modified ApoA1, albeit to a lesser extent. To further evaluate citrullination of ApoA1, the steady state kinetic parameters were determined using Rh-PG.
# PAD3 = molecular target: T2, PAD3 (Homo sapiens, UniProt Q9ULW8); assay: as above; assay type: biochemical; details: recombinant huApoA1, Rh-PG readout
# T2 sequence (Q9ULW8 1-664): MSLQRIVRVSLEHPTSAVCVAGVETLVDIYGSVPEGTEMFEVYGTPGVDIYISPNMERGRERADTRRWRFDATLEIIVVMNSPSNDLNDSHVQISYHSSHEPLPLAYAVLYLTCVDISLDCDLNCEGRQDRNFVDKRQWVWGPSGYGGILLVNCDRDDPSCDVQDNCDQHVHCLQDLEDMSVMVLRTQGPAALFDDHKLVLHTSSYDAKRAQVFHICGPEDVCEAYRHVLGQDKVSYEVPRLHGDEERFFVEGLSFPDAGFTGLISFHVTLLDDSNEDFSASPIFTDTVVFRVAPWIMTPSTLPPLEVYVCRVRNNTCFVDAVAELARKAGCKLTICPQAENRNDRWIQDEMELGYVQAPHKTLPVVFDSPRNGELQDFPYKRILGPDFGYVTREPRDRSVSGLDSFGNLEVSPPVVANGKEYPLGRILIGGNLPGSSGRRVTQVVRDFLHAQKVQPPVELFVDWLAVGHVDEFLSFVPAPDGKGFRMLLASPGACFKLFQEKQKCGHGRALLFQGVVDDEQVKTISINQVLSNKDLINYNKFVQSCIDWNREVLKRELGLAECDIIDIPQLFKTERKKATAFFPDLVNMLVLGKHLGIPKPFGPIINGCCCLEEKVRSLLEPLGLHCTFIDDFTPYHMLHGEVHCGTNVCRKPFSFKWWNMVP
# Method: as §1
# [5] = group average, Group 8 WT, 2% DSS + Cl-Amidine @ 75 mg/kg
# [6] = individual mice, Group 8 WT, 2% DSS + Cl-Amidine @ 75 mg/kg
molecule,measurement,setting,value
O=CC(=O)c1cccc(NC(=O)CCn2cc(CCCC(=O)NCCNC(=O)CCCC[C@@H]3SC[C@@H]4NC(=O)N[C@@H]43)nn2)c1 [Biotin-PG],"limit of detection of Biotin-PG probe, autodeiminated PAD4",autodeiminated PAD4 [1],100 ng
NC(=O)[C@H](CCCN=C(N)CCl)NC(=O)c1ccccc1 [Cl-amidine],disease severity,"[2]; DSS mouse model of ulcerative colitis, previous study (Chumanevich 2011)",reduces disease severity
same,"Colon Length, Average",[2]; [5],8.1 cm
same,"Inflam. Score, Average",[2]; [5],14.6
same,"Lym, Average",[2]; [5],8.2 m/mm^3
same,"WBC, Average",[2]; [5],13.7 m/mm^3
same,"Weight (end), Average",[2]; [5],23.3 g
same,"Weight Diff., Average",[2]; [5],0.7 g
same,Colon Length,[2]; [6],7.6 cm (2×) and 8.1 cm and 8.2 cm and 8.6 cm and 8 cm and 8.4 cm
same,Inflam. Score,[2]; [6],14 (2×) and 24 and 12 (2×) and 10 and 16
same,Lym,[2]; [6],5.68 m/mm^3 and 3.87 m/mm^3 and 11.35 m/mm^3 and 9.4 m/mm^3 and 6.87 m/mm^3 and 9.35 m/mm^3 and 10.83 m/mm^3
same,WBC,[2]; [6],9.75 m/mm^3 and 9.08 m/mm^3 and 18.14 m/mm^3 and 15.12 m/mm^3 and 11.46 m/mm^3 and 15.91 m/mm^3 and 16.41 m/mm^3
same,Weight Diff.,[2]; [6],0.8 g (2×) and 0.15 g and 1.3 g and 0.5 g and 0.7 g and 0.3 g
same,Weight (end),"[2]; individual mice, Group 8 WT, 2% DSS + Cl-Amidine @ 75 mg/kg, in g",23.4 and 22.05 and 22.7 and 24.1 and 25 and 22.5 and 23.6
same,effect on global citrullination (whole lane),[3],significantly decreases global citrullination
"CC(C(=O)Nc1cccc(C(=O)C=O)c1)n1cc(CNC(=O)c2ccc3c(c2)C2(OC3=O)c3ccc(N(C)C)cc3Oc3cc(N(C)C)ccc32)nn1 (stereo not shown) [Rh-PG, N-(3-Glyoxyl)phenylamino)propionyl)-1H-1,2,3-triazol-4-yl)methyl-5(6)-carboxamidotetramethyl rhodamine hydrate]",limit of detection (LOD) of Rh-PG probe labeling of autodeiminated PAD4,autodeiminated PAD4 [4],1 ng
"ApoA1: apolipoprotein-A1, a key component of High Density Lipoprotein; recombinant huApoA1 tested as PAD substrate",substrate quality for PAD4,PAD4,modest substrate
same,substrate quality for PAD2,PAD2,modest substrate
same,substrate quality for PAD3,PAD3,modest substrate
